According to patent US20080132505A1 (Glaxo Group Limited, priority 2004, published 2008):
pEC50: −log10 of the molar value. Where two headings read alike, the source gives them in different places.

Molecular target: human cannabinoid CB2 receptor (Homo sapiens, UniProt P34972)
Experiment: Cannabinoid CB2 receptor agonist activity (yeast reporter assay, FDGlu fluorescence)
Assay type: cell-based
Settings: for Emax: read-out: efficacy value (Emax relative to HU210) at the cloned human cannabinoid CB2 receptor
Procedure, shortened: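 Agonist-driven growth was read as fluorescein fluorescence (ex 485, em 535 nm) from FDGlu cleavage after 24 h at 30 °C, using yeast strain MMY23 carrying human CB2 and chimeric Gpa1/Gαi3. Medium had 10 mM 3-aminotriazole, pH 7.0; four-parameter fits gave EC50, with Emax and EMR versus HU210.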

[1] = read-out: EC50 value at the cloned human cannabinoid CB2 receptor
[2] = EC50 value at the cloned human cannabinoid CB2 receptor

Sequence of human cannabinoid CB2 receptor (P34972 whole entry): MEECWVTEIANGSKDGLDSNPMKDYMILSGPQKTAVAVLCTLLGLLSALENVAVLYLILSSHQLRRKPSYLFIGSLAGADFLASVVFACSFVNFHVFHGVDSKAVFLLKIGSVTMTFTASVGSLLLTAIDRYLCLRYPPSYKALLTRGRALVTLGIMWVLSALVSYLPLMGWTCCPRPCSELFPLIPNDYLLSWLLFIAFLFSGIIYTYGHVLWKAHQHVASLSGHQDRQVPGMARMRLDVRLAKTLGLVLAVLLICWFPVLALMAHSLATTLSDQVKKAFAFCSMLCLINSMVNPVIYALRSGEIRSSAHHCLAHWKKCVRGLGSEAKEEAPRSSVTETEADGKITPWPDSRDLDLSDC

For `O=C(NCC1CCCC1)c1cnc(Nc2ccc(C(F)(F)F)c(F)c2)nc1C(F)(F)F` [Example 97, 2-(4-Trifluoromethyl-3-fluorophenylamino)-4-trifluoromethyl-pyrimidine-5-carboxylic acid cyclopentylmethyl-amide], the pEC50 [1] was 6.00 to 6.52.
`O=C(NCC1CCOCC1)c1cnc(Nc2ccc(F)cc2F)nc1C(F)(F)F` [Example 98, 2-(2,4-Difluorophenylamino)-4-trifluoromethyl-pyrimidine-5-carboxylic acid (tetrahydro-pyran-4-ylmethyl)-amide] was tested, and the pEC50 [2] was 6.00 to 6.52 and the Emax was > 50%.
For `O=C(NCC1CCOCC1)c1cnc(Nc2ccc(Cl)cc2F)nc1C(F)(F)F` [Example 99, 2-(2-Fluoro-4-chlorophenylamino)-4-trifluoromethyl-pyrimidine-5-carboxylic acid (tetrahydro-pyran-4-ylmethyl)-amide], the pEC50 [2] was 6.00 to 6.52 and the Emax was > 50%.
With `O=C(NCC1CCCCC1)c1cnc(Nc2ccc(F)cc2C(F)(F)F)nc1C(F)(F)F` [Example 100, 2-(2-Trifluoromethyl-4-fluorophenylamino)-4-trifluoromethyl-pyrimidine-5-carboxylic acid cyclohexylmethyl-amide] the pEC50 [2] was 6.00 to 6.52 and the Emax was > 50%.
In the case of `O=C(NCC1CCC1)c1cnc(Nc2ccc(F)cc2C(F)(F)F)nc1C(F)(F)F` [Example 101, 2-(2-Trifluoromethyl-4-fluorophenylamino)-4-trifluoromethyl-pyrimidine-5-carboxylic acid cyclobutylmethyl-amide], the pEC50 [2] was 6.00 to 6.52 and the Emax was > 50%.
With `O=C(NCC1CCC1)c1cnc(Nc2ccc(C(F)(F)F)cc2Cl)nc1C(F)(F)F` [Example 102, 2-(2-Chloro-4-trifluoromethylphenylamino)-4-trifluoromethyl-pyrimidine-5-carboxylic acid cyclobutylmethyl-amide] the pEC50 [2] was 6.00 to 6.52 and the Emax was > 50%.
In the case of `N#Cc1ccc(Nc2ncc(C(=O)NCC3CCC3)c(C(F)(F)F)n2)c(Cl)c1` [Example 103, 2-(2-Chloro-4-cyanophenylamino)-4-trifluoromethyl-pyrimidine-5-carboxylic acid cyclobutylmethyl-amide], the pEC50 [2] was 6.00 to 6.52 and the Emax was > 50%.
For `O=C(NCC1CCOCC1)c1cnc(Nc2ccc(Cl)cc2C(F)(F)F)nc1C(F)(F)F` [Example 104, 2-(2-Trifluoromethyl-4-chlorophenylamino)-4-trifluoromethyl-pyrimidine-5-carboxylic acid (tetrahydro-pyran-4-ylmethyl)-amide], the pEC50 [2] was 6.00 to 6.52 and the Emax was > 50%.
With `O=C(NCC1CCC1)c1cnc(Nc2ccc(Br)cc2C(F)(F)F)nc1C(F)(F)F` [Example 105, 2-(2-Trifluoromethyl-4-bromophenylamino)-4-trifluoromethyl-pyrimidine-5-carboxylic acid cyclobutylmethyl-amide] the pEC50 [2] was 6.00 to 6.52 and the Emax was > 50%.
In the case of `O=C(NCC1CCCCC1)c1cnc(Nc2ccc(Br)cc2C(F)(F)F)nc1C(F)(F)F` [Example 106, 2-(2-Trifluoromethyl-4-bromophenylamino)-4-trifluoromethyl-pyrimidine-5-carboxylic acid cyclohexylmethyl-amide], the pEC50 [2] was 6.00 to 6.52 and the Emax was > 50%.
With `O=C(NCC1CCOCC1)c1cnc(Nc2cccc(F)c2F)nc1C(F)(F)F` [Example 107, 2-(2,3-Difluoro-phenylamino)-4-tri-fluoromethyl-pyrimidine-5-carboxylic acid (tetrahydropyran-4-ylmethyl)-amide] the pEC50 [2] was 6.00 to 6.52 and the Emax was > 50%.
For `Cc1ccc(Cl)cc1Nc1ncc(C(=O)NCC2CCOCC2)c(C(F)(F)F)n1` [Example 108, 2-(5-Chloro-2-methyl-phenylamino)-4-tri-fluoromethyl-pyrimidine-5-carboxylic acid (tetrahydropyran-4-ylmethyl)-amide], the pEC50 [2] was 6.00 to 6.52 and the Emax was > 50%.
`N#Cc1c(Cl)cccc1Nc1ncc(C(=O)NCC2CCOCC2)c(C(F)(F)F)n1` [Example 109, 2-(3-Chloro-2-cyano-phenylamino)-4-tri-fluoromethyl-pyrimidine-5-carboxylic acid (tetrahydropyran-4-ylmethyl)-amide] was tested, and the pEC50 [2] was 6.00 to 6.52 and the Emax was > 50%.
For `Cc1ccc(Nc2ncc(C(=O)NCC3CCOCC3)c(C(F)(F)F)n2)c(Cl)c1` [Example 110, 2-(2-Chloro-4-methyl-phenylamino)-4-tri-fluoromethyl-pyrimidine-5-carboxylic acid (tetrahydropyran-4-ylmethyl)-amide], the pEC50 [2] was 6.00 to 6.52 and the Emax was > 50%.
For `N#Cc1cc(Nc2ncc(C(=O)NCC3CCOCC3)c(C(F)(F)F)n2)ccc1Cl` [Example 111, 2-(4-Chloro-3-cyano-phenylamino)-4-tri-fluoromethyl-pyrimidine-5-carboxylic acid (tetrahydropyran-4-ylmethyl)-amide], the pEC50 [2] was 6.00 to 6.52 and the Emax was > 50%.
`Cc1cc(Cl)ccc1Nc1ncc(C(=O)NCC2CCOCC2)c(C(F)(F)F)n1` [Example 112, 2-(4-Chloro-2-methyl-phenylamino)-4-tri-fluoromethyl-pyrimidine-5-carboxylic acid (tetrahydropyran-4-ylmethyl)-amide] was tested, and the pEC50 [2] was 6.00 to 6.52 and the Emax was > 50%.
`Cc1ccc(Cl)c(Nc2ncc(C(=O)NCC3CCOCC3)c(C(F)(F)F)n2)c1` [Example 113, 2-(2-Chloro-5-methyl-phenylamino)-4-tri-fluoromethyl-pyrimidine-5-carboxylic acid (tetrahydropyran-4-ylmethyl)-amide] was tested, and the pEC50 [2] was 6.00 to 6.52 and the Emax was > 50%.
`COc1cccc(Nc2ncc(C(=O)NCC3CCCCC3)c(C(F)(F)F)n2)c1` [Example 163, 2-(3-Methoxyphenylamino)-4-trifluoromethyl-pyrimidine-5-carboxylic acid cyclohexylmethyl-amide] showed a pEC50 [1] of 6.52 to 7.70.
`O=C(NCC1(O)CCCCC1)c1cnc(Nc2cccc(Cl)c2)nc1C(F)(F)F` [Example 164, 2-(3-Chlorophenylamino)-4-trifluoromethyl-pyrimidine-5-carboxylic acid (1-hydroxycyclohexylmethyl)-amide] was tested, and the pEC50 [2] was 6.52 to 7.70 and the Emax was > 50%.
For `O=C(NCC1(O)CCCCC1)c1cnc(Nc2cccc(Br)c2)nc1C(F)(F)F` [Example 165, 2-(3-Bromophenylamino)-4-trifluoromethyl-pyrimidine-5-carboxylic acid (1-hydroxycyclohexylmethyl)-amide], the pEC50 [2] was 6.52 to 7.70 and the Emax was > 50%.
`O=C(NCC1CCCCC1)c1cnc(Nc2ccc(F)c(Cl)c2)nc1C(F)(F)F` [Example 166, 2-(3-Chloro-4-fluorophenylamino)-4-trifluoromethyl-pyrimidine-5-carboxylic acid cyclohexylmethyl-amide] was tested, and the pEC50 [2] was 6.52 to 7.70 and the Emax was > 50%.
For `O=C(NCC1CCCCC1)c1cnc(Nc2cccc(Cl)c2F)nc1C(F)(F)F` [Example 167, 2-(3-Chloro-2-fluorophenylamino)-4-trifluoromethyl-pyrimidine-5-carboxylic acid cyclohexylmethyl-amide], the pEC50 [2] was 6.52 to 7.70 and the Emax was > 50%.
`O=C(NCC1CCCCC1)c1cnc(Nc2cc(Cl)ccc2F)nc1C(F)(F)F` [Example 168, 2-(5-Chloro-2-fluorophenylamino)-4-trifluoromethyl-pyrimidine-5-carboxylic acid cyclohexylmethyl-amide] was tested, and the pEC50 [2] was 6.52 to 7.70 and the Emax was > 50%.
With `O=C(NCC1CCCCC1)c1cnc(Nc2cc(F)cc(F)c2)nc1C(F)(F)F` [Example 169, 2-(3,5-Difluorophenylamino)-4-trifluoromethyl-pyrimidin-5-carboxylic acid cyclohexylmethyl-amide] the pEC50 [2] was 6.52 to 7.70 and the Emax was > 50%.
`O=C(NCC1CCCCC1)c1cnc(Nc2ccc(Cl)cc2C(F)(F)F)nc1C(F)(F)F` [Example 170, 2-(4-Chloro-2-trifluoromethylphenylamino)-4-trifluoromethyl-pyrimidine-5-carboxylic acid cyclohexylmethyl-amide] was tested, and the pEC50 [2] was 6.52 to 7.70 and the Emax was > 50%.
For `N#Cc1cccc(Nc2ncc(C(=O)NCC3CCCCC3)c(C(F)(F)F)n2)c1` [Example 171, 2-(3-Cyanophenylamino)-4-trifluoromethyl-pyrimidine-5-carboxylic acid cyclohexylmethyl-amide], the pEC50 [2] was 6.52 to 7.70 and the Emax was > 50%.
In the case of `N#Cc1cccc(Nc2ncc(C(=O)NCC3CCOCC3)c(C(F)(F)F)n2)c1` [Example 172, 2-(3-Cyanophenylamino)-4-trifluoromethyl-pyrimidine-5-carboxylic acid (tetrahydropyran-4-ylmethyl)-amide], the pEC50 [2] was 6.52 to 7.70 and the Emax was > 50%.
For `N#Cc1cccc(Nc2ncc(C(=O)NCC3CCCC3)c(C(F)(F)F)n2)c1` [Example 173, 2-(3-Cyanophenylamino)-4-trifluoromethyl-pyrimidine-5-carboxylic acid cyclopentylmethyl-amide], the pEC50 [2] was 6.52 to 7.70 and the Emax was > 50%.
For `N#Cc1ccc(Nc2ncc(C(=O)NCC3CCCCC3)c(C(F)(F)F)n2)cc1` [Example 174, 2-(4-Cyanophenylamino)-4-trifluoromethyl-pyrimidine-5-carboxylic acid cyclohexylmethyl-amide], the pEC50 [1] was 6.52 to 7.70.
With `N#Cc1ccc(Nc2ncc(C(=O)NCC3CCOCC3)c(C(F)(F)F)n2)cc1` [Example 175, 2-(4-Cyanophenylamino)-4-trifluoromethyl-pyrimidine-5-carboxylic acid (tetrahydropyran-4-ylmethyl)-amide] the pEC50 [2] was 6.52 to 7.70 and the Emax was > 50%.
In the case of `COc1cc(Nc2ncc(C(=O)NCC3CCOCC3)c(C(F)(F)F)n2)cc(C(F)(F)F)c1` [Example 177, 2-(3-Methoxy-5-(trifluoromethyl)phenylamino)-4-trifluoromethyl-pyrimidine-5-carboxylic acid (tetrahydropyran-4-ylmethyl)-amide], the pEC50 [2] was 6.52 to 7.70 and the Emax was > 50%.
With `O=C(NCC1CCOCC1)c1cnc(Nc2cc(C(F)(F)F)cc(C(F)(F)F)c2)nc1C(F)(F)F` [Example 178, 2-(3,5-Bis-trifluoromethylphenylamino)-4-trifluoromethyl-pyrimidine-5-carboxylic acid (tetrahydropyran-4-ylmethyl)-amide] the pEC50 [2] was 6.52 to 7.70 and the Emax was > 50%.
